The target in test [1] is T1, glutamate-oxaloacetate transaminase 1 (GOT1) (Homo sapiens, UniProt P17174). The test can be described thus: MDH1-coupled enzyme assay, […] h pre-incubation. The test is classed as biochemical.
Test [2] addresses T1, glutamate-oxaloacetate transaminase 1 (GOT1). The test can be described thus: MDH1-coupled enzyme assay, percent inhibition. The test is classed as biochemical.

The structures appear in SMILES notation.

T1 sequence (P17174 2-413): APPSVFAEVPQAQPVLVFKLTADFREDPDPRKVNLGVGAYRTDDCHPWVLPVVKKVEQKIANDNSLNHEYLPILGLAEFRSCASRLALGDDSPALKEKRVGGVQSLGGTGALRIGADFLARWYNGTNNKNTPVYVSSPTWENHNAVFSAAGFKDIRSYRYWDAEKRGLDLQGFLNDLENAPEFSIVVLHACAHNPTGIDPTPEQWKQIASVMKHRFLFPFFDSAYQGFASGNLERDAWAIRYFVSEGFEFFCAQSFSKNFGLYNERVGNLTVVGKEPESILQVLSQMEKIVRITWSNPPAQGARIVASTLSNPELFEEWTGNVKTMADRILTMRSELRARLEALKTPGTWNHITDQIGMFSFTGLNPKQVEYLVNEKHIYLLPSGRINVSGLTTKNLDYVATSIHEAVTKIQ

Broadly, the IC50 is the concentration that inhibits the measured activity by half. Higher therefore signals a need for much substance. As for `N[C@H]1Cc2ccccc2N(O)C1=O` [PF-04859989], the IC50 in test [1] was determined as 8 µM.
Take `NOCC(=O)O` [amino-oxyacetate]: the “MDH1-coupled enzyme assay, percent inhibition” value in test [2] is “The pan-transaminase inhibitor amino-oxyacetate (AOA) was used as a positive control”.
